Like-named read-outs stand apart in the source and are kept apart here. A value given as a limit tells only on which side of the number the result lay.

The target of one assay is human Gal-3 (hGal-3) (Homo sapiens (Human), UniProt P17931). In words: competitive binding assay: biotinylated hGal-3 binding to microplate-adsorbed asialofetuin (ASF). Summed up: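 3 h, 4 °C binding step; cold buffer wash; streptavidin-HRP 80 ng/mL, 1 h, 4 °C; ABTS colorimetric read-out. Compounds diluted serially in DMSO. IC50 reported as mean of repeat runs.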
human Gal-3 (hGal-3), sequence (P17931 whole entry): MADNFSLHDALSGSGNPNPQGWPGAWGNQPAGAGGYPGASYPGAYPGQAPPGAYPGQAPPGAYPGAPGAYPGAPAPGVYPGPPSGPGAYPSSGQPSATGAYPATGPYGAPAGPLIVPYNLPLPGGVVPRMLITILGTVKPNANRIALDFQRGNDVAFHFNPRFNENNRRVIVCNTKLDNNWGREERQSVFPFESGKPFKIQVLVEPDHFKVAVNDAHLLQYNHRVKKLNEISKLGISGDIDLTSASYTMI
Another assay concerns the target human Gal-1 (hGal-1) (Homo sapiens (Human), UniProt P09382). In words: competitive binding assay: biotinylated hGal-1 binding to microplate-adsorbed asialofetuin (ASF). Particulars: Table 15; read-out: IC50 (Galectin-1 inhibition). The essentials: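 Spectrophotometric competition readout: after compound and biotinylated hGal-1 (300-1000 ng/mL) sit 3 h at 4° C on adsorbed asialofetuin, streptavidin-peroxidase (1 h, 4° C) and ABTS reveal residual binding. Reported IC50 values are means of repeat runs.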

Setting [1] is: Table 10, 2-OMe-Gal inhibitors, read-out: IC50 (Gal-3 inhibition).
Setting [2] is: Table 5, read-out: IC50 (Gal-3 inhibition).
[3] abbreviates: Gal-3 inhibition, binding of biotinylated hGal-3 to ASF, mean values, read-out: IC50.

human Gal-1 (hGal-1), sequence (P09382 whole entry): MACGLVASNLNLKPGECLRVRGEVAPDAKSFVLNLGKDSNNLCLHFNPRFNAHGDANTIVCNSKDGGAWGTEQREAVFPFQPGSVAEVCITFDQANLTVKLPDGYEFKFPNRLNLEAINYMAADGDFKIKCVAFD

What is called IC50 is the point on the concentration scale where inhibition reaches its midpoint. For `CO[C@@H]1[C@@H](n2cc(-c3cc(F)c(F)c(F)c3)nn2)[C@@H](O)[C@@H](CO)O[C@H]1S[C@H](c1nocc1C)C1(O)CCCCC1` [Example 2.39.120R.I., (2R,3R,4S,5R,6S)-6-(((R)-(1-Hydroxycyclohexyl)(4-methylisoxazol-3-yl)methyl)thio)-2-(hydroxymethyl)-5-methoxy-4-(4-(3,4,5-trifluorophenyl)-1H-1,2,3-triazol-1-yl)tetrahydro-2H-pyran-3-ol], the figures for the IC50 on human Gal-3 (hGal-3) (setting [1]) and on human Gal-1 (hGal-1) were 250 nM and 560 nM, respectively.

On to `Cc1ccccc1C(S[C@@H]1O[C@H](CO)[C@H](O)[C@H](n2cc(-c3cc(F)c(F)c(F)c3)nn2)[C@H]1O)C1(O)CC(C)(C)C1` (stereo partly drawn) [Example 2.35.102., (2S,3R,4S,5R,6R)-2-(((1-Hydroxy-3,3-dimethylcyclobutyl)(o-tolyl)methyl)thio)-6-(hydroxymethyl)-4-(4-(3,4,5-trifluorophenyl)-1H-1,2,3-triazol-1-yl)tetrahydro-2H-pyran-3,5-diol], for which the IC50 at human Gal-3 (hGal-3) (setting [2]) worked out at 350 nM; on human Gal-1 (hGal-1), 6220 nM.

Take `OC[C@H]1O[C@@H](SC(c2nccnc2Cl)C2(O)CCC(F)(F)CC2)[C@H](O)[C@@H](n2cc(-c3cc(F)c(F)c(F)c3)nn2)[C@H]1O` (stereo partly drawn) [Example 2.44.133., (2S,3R,4S,5R,6R)-2-(((3-Chloropyrazin-2-yl)(4,4-difluoro-1-hydroxycyclohexyl)methyl)thio)-6-(hydroxymethyl)-4-(4-(3,4,5-trifluorophenyl)-1H-1,2,3-triazol-1-yl)tetrahydro-2H-pyran-3,5-diol]: the IC50 came out at 40 nM on human Gal-3 (hGal-3) (setting [3]) and 450 nM on human Gal-1 (hGal-1).

`CC(C)(O)C(S[C@@H]1O[C@H](CO)[C@H](O)[C@H](n2cc(-c3cc(F)c(F)c(F)c3)nn2)[C@H]1O)c1ccccc1CCO` (stereo partly drawn) [Example 2.31.108., (2S,3R,4S,5R,6R)-2-((2-Hydroxy-1-(2-(2-hydroxyethyl)phenyl)-2-methylpropyl)thio)-6-(hydroxymethyl)-4-(4-(3,4,5-trifluorophenyl)-1H-1,2,3-triazol-1-yl)tetrahydro-2H-pyran-3,5-diol]: the values for the half-inhibitory concentration (IC50) on human Gal-3 (hGal-3) (setting [3]) and at human Gal-1 (hGal-1) were 380 nM and 21200 nM, respectively.

`Cc1nc(C)c([C@H](S[C@@H]2O[C@H](CO)[C@H](O)[C@H](n3cc(-c4cc(F)c(F)c(F)c4)nn3)[C@H]2O)C2(O)CCCCC2)nc1C` [Example 2.39.119S., (2S,3R,4S,5R,6R)-2-(((S)-(1-Hydroxycyclohexyl) (3,5,6-trimethylpyrazin-2-yl)methyl)thio)-6-(hydroxymethyl)-4-(4-(3,4,5-trifluorophenyl)-1H-1,2,3-triazol-1-yl)tetrahydro-2H-pyran-3,5-diol]: the IC50 at human Gal-3 (hGal-3) (setting [2]) came to 3960 nM; at human Gal-1 (hGal-1) it was 18900 nM.

In the case of `CO[C@@H]1[C@@H](n2cc(-c3cc(F)c(F)c(F)c3)nn2)[C@@H](O)[C@@H](CO)O[C@H]1S[C@H](c1nc(C)ccc1Cl)C1(O)CCC(F)(F)CC1` [Example 2.44.148R.I., (2R,3R,4S,5R,6S)-6-(((R)-(3-Chloro-6-methylpyridin-2-yl)(4,4-difluoro-1-hydroxycyclohexyl)methyl)thio)-2-(hydroxymethyl)-5-methoxy-4-(4-(3,4,5-trifluorophenyl)-1H-1,2,3-triazol-1-yl)tetrahydro-2H-pyran-3-ol], the IC50 on human Gal-3 (hGal-3) (Table 11, read-out: IC50 (Gal-3 inhibition)) turned out to be 240 nM; at human Gal-1 (hGal-1), 3040 nM.

As to `Cc1nccnc1[C@H](S[C@@H]1O[C@H](CO)[C@H](O)[C@H](n2cc(-c3cc(F)c(F)c(F)c3)nn2)[C@H]1O)C1(O)CCC(F)(F)CC1` [Example 2.44.129S., (2S,3R,4S,5R,6R)-2-(((S)-(4,4-Difluoro-1-hydroxycyclohexyl)(3-methylpyrazin-2-yl)methyl)thio)-6-(hydroxymethyl)-4-(4-(3,4,5-trifluorophenyl)-1H-1,2,3-triazol-1-yl)tetrahydro-2H-pyran-3,5-diol], the IC50 at human Gal-3 (hGal-3) (setting [3]) is 1480 nM; on human Gal-1 (hGal-1), 6300 nM.

For “(2S,3R,4S,5R,6R)-2-(((R)-((S)-4-Hydroxy-2,2-dimethyltetrahydro-2H-pyran-4-yl)(2-(trifluoromethyl)phenyl)methyl)thio)-6-(hydroxymethyl)-4-(4-(3,4,5-trifluorophenyl)-1H-1,2,3-triazol-1-yl)tetrahydro-2H-pyran-3,5-diol [Example 2.43.102RS.]”, the concentration for half-maximal inhibition (IC50) stood at 40 nM at human Gal-3 (hGal-3) (setting [2]) and 800 nM at human Gal-1 (hGal-1).

As to `Cc1conc1[C@H](S[C@@H]1O[C@H](CO)[C@H](O)[C@H](n2cc(-c3cc(F)c(F)c(F)c3)nn2)[C@H]1O)C1(O)CCS(=O)(=O)CC1` [Example 2.66.120S., 4-((S)-(((2S,3R,4S,5R,6R)-3,5-Dihydroxy-6-(hydroxymethyl)-4-(4-(3,4,5-trifluorophenyl)-1H-1,2,3-triazol-1-yl)tetrahydro-2H-pyran-2-yl)thio)(4-methylisoxazol-3-yl)methyl)-4-hydroxytetrahydro-2H-thiopyran 1,1-dioxide], the IC50 on human Gal-3 (hGal-3) (setting [3]) was 4570 nM; on human Gal-1 (hGal-1), 24100 nM.

Turning to `OC[C@H]1O[C@@H](S[C@H](c2ncccc2C(F)(F)F)C2(O)CCCCC2)[C@H](O)[C@@H](n2cc(-c3cc(F)c(F)c(F)c3)nn2)[C@H]1O` [Example 2.39.125R., (2S,3R,4S,5R,6R)-2-(((R)-(1-Hydroxycyclohexyl)(3-(trifluoromethyl)pyridin-2-yl)methyl)thio)-6-(hydroxymethyl)-4-(4-(3,4,5-trifluorophenyl)-1H-1,2,3-triazol-1-yl)tetrahydro-2H-pyran-3,5-diol], the IC50 at human Gal-3 (hGal-3) (setting [2]) is 100 nM; at human Gal-1 (hGal-1), 280 nM.

On to `Cc1nc(C)c(C(S[C@@H]2O[C@H](CO)[C@H](O)[C@H](n3cc(-c4cc(F)c(F)c(F)c4)nn3)[C@H]2O)C2(O)CCN(C)CC2)nc1C` (stereo partly drawn) [Example 2.40.119., (2S,3R,4S,5R,6R)-2-(((4-Hydroxy-1-methylpiperidin-4-yl)(3,5,6-trimethylpyrazin-2-yl)methyl)thio)-6-(hydroxymethyl)-4-(4-(3,4,5-trifluorophenyl)-1H-1,2,3-triazol-1-yl)tetrahydro-2H-pyran-3,5-diol], for which the IC50 worked out at 100 nM on human Gal-3 (hGal-3) (setting [3]) and 270 nM at human Gal-1 (hGal-1).

For the compound `CN1CCC(O)([C@@H](S[C@@H]2O[C@H](CO)[C@H](O)[C@H](n3cc(-c4cc(F)c(F)c(F)c4)nn3)[C@H]2O)c2ncccc2C(F)(F)F)CC1` [Example 2.40.125S., (2S,3R,4S,5R,6R)-2-(((S)-(4-Hydroxy-1-methylpiperidin-4-yl)(3-(trifluoromethyl)pyridin-2-yl)methyl)thio)-6-(hydroxymethyl)-4-(4-(3,4,5-trifluorophenyl)-1H-1,2,3-triazol-1-yl)tetrahydro-2H-pyran-3,5-diol], the IC50 came to 3650 nM on human Gal-3 (hGal-3) (setting [2]) and 11200 nM at human Gal-1 (hGal-1).

Regarding `Cc1c(F)cc(-c2cn([C@H]3[C@@H](O)[C@@H](CO)O[C@@H](S[C@H](c4ccccc4C(F)(F)F)C(C)(C)O)[C@@H]3O)nn2)cc1F` [Example 3.31.112R., (2S,3R,4S,5R,6R)-4-(4-(3,5-Difluoro-4-methylphenyl)-1H-1,2,3-triazol-1-yl)-2-(((R)-2-hydroxy-2-methyl-1-(2-(trifluoromethyl)phenyl)propyl)thio)-6-(hydroxymethyl)tetrahydro-2H-pyran-3,5-diol], the IC50 on human Gal-3 (hGal-3) (setting [3]) turned out to be 150 nM; at human Gal-1 (hGal-1), 2840 nM.

`Cc1ccccc1[C@H](S[C@@H]1O[C@H](CO)[C@H](O)[C@H](n2cc(-c3cc(F)c(F)c(F)c3)nn2)[C@H]1O)C1(O)CCCCC1` [Example 2.39.102S., (2S,3R,4S,5R,6R)-2-(((S)-(1-Hydroxycyclohexyl)(o-tolyl)methyl)thio)-6-(hydroxymethyl)-4-(4-(3,4,5-trifluorophenyl)-1H-1,2,3-triazol-1-yl)tetrahydro-2H-pyran-3,5-diol]: the results for the half-inhibitory concentration (IC50) on human Gal-3 (hGal-3) (setting [2]) and on human Gal-1 (hGal-1) were 4540 nM and 24000 nM, respectively.

For `CCn1ncc(Cl)c1[C@H](S[C@@H]1O[C@H](CO)[C@H](O)[C@H](n2cc(-c3cc(F)c(F)c(F)c3)nn2)[C@H]1OC)C1(O)CCC(F)(F)CC1` [Example 2.44.139S.I., (2R,3R,4S,5R,6S)-6-(((S)-(4-Chloro-1-ethyl-1H-pyrazol-5-yl)(4,4-difluoro-1-hydroxycyclohexyl)methyl)thio)-2-(hydroxymethyl)-5-methoxy-4-(4-(3,4,5-trifluorophenyl)-1H-1,2,3-triazol-1-yl)tetrahydro-2H-pyran-3-ol], the IC50 is 37900 nM at human Gal-3 (hGal-3) (setting [1]) and > 100000 nM on human Gal-1 (hGal-1).

For `CC(C)(O)[C@H](S[C@@H]1O[C@H](CO)[C@H](O)[C@H](n2cc(-c3cc(F)c(F)c(F)c3)nn2)[C@H]1O)c1ccccc1C1CC1` [Example 2.31.106R., (2S,3R,4S,5R,6R)-2-(((R)-1-(2-cyclopropylphenyl)-2-hydroxy-2-methylpropyl)thio)-6-(hydroxymethyl)-4-(4-(3,4,5-trifluorophenyl)-1H-1,2,3-triazol-1-yl)tetrahydro-2H-pyran-3,5-diol], the figures for the IC50 at human Gal-3 (hGal-3) (setting [3]) and on human Gal-1 (hGal-1) were 140 nM and 210 nM, respectively.

Consider “(2S,3R,4S,5R,6R)-2-(((R)-((S)-4-Hydroxy-2,2-dimethyltetrahydro-2H-pyran-4-yl)(o-tolyl)methyl)thio)-6-(hydroxymethyl)-4-(4-(3,4,5-trifluorophenyl)-1H-1,2,3-triazol-1-yl)tetrahydro-2H-pyran-3,5-diol [Example 2.43.112RS.]”, for which the IC50 turned out to be 130 nM at human Gal-3 (hGal-3) (setting [2]) and 400 nM on human Gal-1 (hGal-1).

For `Cc1noc(C2CC2)c1[C@@H](S[C@@H]1O[C@H](CO)[C@H](O)[C@H](n2cc(-c3cc(F)c(F)c(F)c3)nn2)[C@H]1O)C1(O)CCCCC1` [Example 2.39.128R., (2S,3R,4S,5R,6R)-2-(((R)-(5-Cyclopropyl-3-methylisoxazol-4-yl)(1-hydroxycyclohexyl)methyl)thio)-6-(hydroxymethyl)-4-(4-(3,4,5-trifluorophenyl)-1H-1,2,3-triazol-1-yl)tetrahydro-2H-pyran-3,5-diol], the IC50 came to 190 nM at human Gal-3 (hGal-3) (setting [2]) and 1030 nM on human Gal-1 (hGal-1).

The values above are taken from patent US12404295B2, “(Hetero)aryl-methyl-thio-beta-D-galactopyranoside derivatives” (Idorsia Pharmaceuticals Ltd, priority 2019, dated 2025).
